Reference: patent publication EP4810498A1, “MEDICATION FOR TREATING SEVERE MALARIA AND SYNTHESIS METHOD THEREFOR” (Institute of Chinese Materia Medica, China Academy of …, priority 2023, dated 2025)
Like-named read-outs stand apart in the source and are kept apart here. Values belong to the compound of their own block, whether it stands above or below them.

What was measured:
[1] = system: Plasmodium falciparum 3D7; assay: SYBR Green assay, growth inhibition of Plasmodium falciparum cultured in vitro; assay type: cell-based
Protocol: Plasmodium falciparum in the ring stage was synchronized. Smearing was carried out and the infection rate was counted. The synchronized parasitized red blood cells, healthy red blood cells and mediums were matched in a reasonable ratio, resulting in an in vitro culture system of plasmodia (ring bodies, 2 to 4 hours-old) with a hematocrit of 2% and an infection rate of 1%. […] A1-A10 was paved with 25 µl of drugs (with 8 complex wells for each drug) and mixed evenly, and then diluted in multiple proportions (Ax-Hx). Except for A12-H12, 50 µL of a plasmodium culture solution was spread in all the other wells; and A12-H12 was spread with 50 µl of healthy red blood cells (in the medium with a hematocrit of 2%). […] 100 µl of a lysis buffer was added to each of the wells and put into a drawer to avoid light for 1 h.
In this experiment, SYBR Green assay was used to determine the median inhibitory concentration (IC50) value of the drug for treating Plasmodium falciparum 3D7. Nonlinear regression was used to calculate the value by means of software graphpad prism 8.0 (the value was equal to average value plus or minus standard error), and a four-parameter logistic fitting curve was used. Each value in the curve was equal to average value plus or minus standard error in eight biological repetitive experiments.

[2] = system: Plasmodium berghei ANKA strain; assay: Survival rate of cerebral malaria model mice; assay type: in vivo, C57BL/6J mice; details: 15.6 mg/kg AS, nasal drip, four consecutive days; 28 days of observation
Excerpt: (§1) Experimental study on the antimalarial activity of Artesunazine (Example Ia-1) in vitro and vivo. I. Protection of Artesunazine on mice infected by Plasmodium berghei ANKA strain. (I) Experimental materials: • 1. Animals: C57BL/6J, weighing 16-18 g, 10 in each group, 50 in total. • 2. Plasmodium strain: Plasmodium berghei ANKA strain, donated by Professor Zhao Ya of Air Force Medical University of the People's Liberation Army of China (The Fourth Military Medical University), was preserved in our laboratory by blood transmission or freezing. • 3. Drugs and preparation methods: Artesunazine and a positive control drug artesunate were dissolved in a mixed solvent of polyethylene glycol 400 (PEG400) and water (PEG400:water=4:1), serving as a preparation for immediate use. (II) Experimental methods • 1. Plasmodium resuscitation and passage: A Plasmodium berghei ANKA strain frozen in liquid nitrogen was taken out and placed in a water bath kettle at 37°C. After melting, it was immediately intraperitoneally inoculated into C57BL/6J mice (0.2 mL/mouse). When the infection rate of the breeding mice reached 15-30%, their eyeballs were removed and blood was collected in an anticoagulant tube. After shaking well, the blood was transmitted to offspring C57BL/6J mice with a 1 mL syringe at an injection dose of 0.2 mL/mouse. • 2. Plasmodium inoculation: C57BL/6J mice were weighed and fed adaptively. When the infection rate of offspring C57BL/6J mice reached 15-30%, the total number of red blood cells and the number of pRBCs were counted after their eyeballs were removed and blood was collected. The blood was injected intraperitoneally into model group C57BL/6J mice at an injection dose of 0.2 mL (including 1×10^7 pRBCs) per mouse, which was the 0th day (D0) of inoculation. • 3. Animal grouping: After inoculation, the experimental mice were randomly divided into 5 groups, including a model (M) group, high, medium and low dose Artesunazine groups (i.e., 40 mg/kg, 20 mg/kg, and 10 mg/kg Artesunazine), and an artesunate group (i.e., 15.6 mg/kg AS, clinically equivalent dose). The dosage of the medium dose Artesunazine group (20mg/kg Artesunazine) is equivalent to that of the artesunate group (15.6 mg/kg). There are 10 mice in each group, a total of 50 mice. • 4. Determination of survival rate From the 0th day of inoculation, the death of mice was observed every day for 28 consecutive days. Survival rate = (Number of surviving mice)/(Number of experimental mice) × 100% [formula] • 5. Determination of recurrence rate After inoculation, the mice were randomly divided into groups and administered via nasal drip for 3 h. […] The mouse recurrence rate was calculated by the ratio of the number of mice with recurrence to the total number of mice. […]

[3] = system: Plasmodium berghei ANKA strain; assay: Recurrence rate of cerebral malaria model mice (blood smear); assay type: in vivo, C57BL/6J mice; details: AS group (15.6 mg/kg)
Excerpt: Experimental study on the antimalarial activity of Artesunazine (Example Ia-1) in vitro and vivo. I. Protection of Artesunazine on mice infected by Plasmodium berghei ANKA strain. (I) Experimental materials: • 1. Animals: C57BL/6J, weighing 16-18 g, 10 in each group, 50 in total. • 2. Plasmodium strain: Plasmodium berghei ANKA strain, donated by Professor Zhao Ya of Air Force Medical University of the People's Liberation Army of China (The Fourth Military Medical University), was preserved in our laboratory by blood transmission or freezing. • 3. Drugs and preparation methods: Artesunazine and a positive control drug artesunate were dissolved in a mixed solvent of polyethylene glycol 400 (PEG400) and water (PEG400:water=4:1), serving as a preparation for immediate use. (II) Experimental methods • 1. Plasmodium resuscitation and passage: A Plasmodium berghei ANKA strain frozen in liquid nitrogen was taken out and placed in a water bath kettle at 37°C. After melting, it was immediately intraperitoneally inoculated into C57BL/6J mice (0.2 mL/mouse). When the infection rate of the breeding mice reached 15-30%, their eyeballs were removed and blood was collected in an anticoagulant tube. After shaking well, the blood was transmitted to offspring C57BL/6J mice with a 1 mL syringe at an injection dose of 0.2 mL/mouse. • 2. Plasmodium inoculation: C57BL/6J mice were weighed and fed adaptively. When the infection rate of offspring C57BL/6J mice reached 15-30%, the total number of red blood cells and the number of pRBCs were counted after their eyeballs were removed and blood was collected. The blood was injected intraperitoneally into model group C57BL/6J mice at an injection dose of 0.2 mL (including 1×10^7 pRBCs) per mouse, which was the 0th day (D0) of inoculation. • 3. Animal grouping: After inoculation, the experimental mice were randomly divided into 5 groups, including a model (M) group, high, medium and low dose Artesunazine groups (i.e., 40 mg/kg, 20 mg/kg, and 10 mg/kg Artesunazine), and an artesunate group (i.e., 15.6 mg/kg AS, clinically equivalent dose). The dosage of the medium dose Artesunazine group (20mg/kg Artesunazine) is equivalent to that of the artesunate group (15.6 mg/kg). There are 10 mice in each group, a total of 50 mice. • 4. Determination of survival rate From the 0th day of inoculation, the death of mice was observed every day for 28 consecutive days. Survival rate = (Number of surviving mice)/(Number of experimental mice) × 100% [formula] • 5. Determination of recurrence rate After inoculation, the mice were randomly divided into groups and administered via nasal drip for 3 h. After four consecutive days of administration, blood smear test began at D4. A small drop of blood was taken from the tail tip of a mouse and dropped onto a glass slide. The blood drop was pushed to one end at a certain angle with the edge of another glass slide to make a thin blood film with appropriate thickness. After the thin blood film was air-dried, it was fixed with methanol and placed until completely air-dried. After a Giemsa stain solution was diluted at a ratio of 1:9 for staining (completely covering the fixed thin blood film) for 20 min, the thin blood film was rinsed under a faucet, and the water on the surface of the film was quickly absorbed with filter paper. A drop of cedar oil was dropped onto a glass slide for examination under a 100x oil microscope to count the number of parasitized red blood cells contained in 1000 red blood cells. The mouse recurrence rate was calculated by the ratio of the number of mice with recurrence to the total number of mice. Recurrence rate = (Number of mice with recurrence)/(Number of experimental mice) × 100% [formula] • 6. RMCBS score determination A rapid mouse coma behavior scale (RMCBS) was used to evaluate the neurological function of experimental mice. […]

[4] = system: Plasmodium berghei ANKA strain; assay: Rapid mouse coma behavior scale (RMCBS) score of cerebral malaria model mice; assay type: in vivo, C57BL/6J mice; details: AS group (15.6 mg/kg), at the end point of observation; total of 20 points
Excerpt: as §1

[5] = system: Plasmodium berghei ANKA strain; assay: Body weight of cerebral malaria model mice; assay type: in vivo, C57BL/6J mice; details: AS group (15.6 mg/kg), at the end of the observation; in g (unit assumed)
Excerpt: as §1

[6] = mixed solution with ligustrazine hydrochloride in 80% polyethylene glycol 400, dark environment at 40°C
Protocol: 160.2 mg of Artesunazine was weighed and put into a penicillin bottle, 8 mL of a 80% polyethylene glycol 400 solution was added, and the Artesunazine was completely dissolved by ultrasonic treatment, resulting in about 20.25 mg/mL Artesunazine solution. Subsequently, the penicillin bottle filled with the solution was sealed, covered with aluminum foil paper for light avoidance treatment, and placed in a stability test box at 40°C; and 0.5 mL to 25 mL of the solution was sampled into volumetric flasks on days 0, 3, 7, and 10, respectively. After diluting with methanol and shaking well, the content of the Artesunazine was determined by an ultra performance liquid chromatography (UPLC) method.
The UPLC determination conditions for the Artesunazine are as follows: Instrument: ultra performance liquid chromatography Waters ACQUITY UPLC, chromatographic column: ACQUITY UPLC HSS T3 Column (100 Å, 1.8 µm, 2.1 mm×100 mm), detection wavelength: 295 nm, mobile phase: acetonitrile-0.1% phosphoric acid water (35:65), flow rate: 0.3 ml/min, column temperature: 30°C, sample room temperature: 25°C, injection volume: 3 µL. […]

[7] = Plasmodium falciparum, 3D7, 72 h

IC50 ([1]; Plasmodium falciparum standard strain 3D7, cultured for 72 h, read-out: IC50): 107 nM
SMILES: Cc1nc(C)c(COCCOC2OC3OC4(C)CCC5C(C)CCC(C2C)C35OO4)nc1C [Compound Ia-8, 2,3,5-trimethyl-6-[(2-(((3R, 5aS, 6R, 9R, 12R, 12aR)-3,6,9-trimethylbicyclo [3.2.1]heptane-12H-3, 12-epoxide [1, 2]dioxacycloheptane [4,3-i]isochromene-10-yl)oxy)ethoxy)methyl] pyrazine]

SMILES: Cc1nc(C)c(COC(=O)C2CCN(CC(=O)OC3OC4OC5(C)CCC6C(C)CCC(C3C)C46OO5)CC2)nc1C [Compound Ia-9, (3,5,6-trimethylpyrazine-2-yl) methyl 1-(2-oxy-2-(((3R, 5aS, 6R, 9R, 10S, 12R, 12aR)-3,6,9-trimethyldecahydro-12H-3, 12-epoxy [1, 2]dioxacycloheptane-10-yl)oxy)ethyl) piperidine-4-formate]
IC50 [1, 7]: 32.7 nM

IC50 ([1]; Plasmodium falciparum, 3D7, standard antimalarial drug given for comparison, source of the value not stated, read-out: IC50): ~11.8 nM
SMILES: C[C@@H]1CC[C@H]2[C@@H](C)C(=O)O[C@@H]3O[C@@]4(C)CC[C@@H]1[C@]32OO4 [artemisinin, reference compound]

SMILES: C[C@H]1[C@H](OC(=O)CCC(=O)O)O[C@@H]2O[C@@]3(C)CC[C@H]4[C@H](C)CC[C@@H]1[C@@]24OO3 [artesunate, dihydroartemisinin-12-α-succinate, reference compound]
survival rate [2]: 40% | Recurrence rate (%) D4 ([3]; D4): 10% | Recurrence rate (%) D7 ([3]; D7): 90% | Recurrence rate (%) D28 ([3]; D28): 100% | RMCBS score [4]: 16.22±0.55 points | body weight [5]: 15.41±0.50 | IC50 [1, 7]: 8.82 nM | content of artesunate [6]: rapidly decreased

SMILES: CCN(CC)CCCC(C)Nc1ccnc2cc(Cl)ccc12 (stereo not shown) [chloroquine, reference compound]
IC50 ([1]; Plasmodium falciparum, 3D7): ~2.36 nM

IC50 ([1]; Plasmodium falciparum, 3D7, standard antimalarial drugs given for comparison, source of the values not stated, read-out: IC50): ~3.96 nM
SMILES: OC(c1cc(C(F)(F)F)nc2c(C(F)(F)F)cccc12)C1CCCCN1 (stereo not shown) [mefloquine, reference compound]
